In US9156796B2, “Benzoimidazole-carboxylic acid amide derivatives as APJ receptor modulators” (SANOFI, priority 2013, dated 2015):

Target: T1, human apelin receptor (Homo sapiens, UniProt P35414)
T1 construct: expressed in transfected cells
T1 sequence (P35414 1-380): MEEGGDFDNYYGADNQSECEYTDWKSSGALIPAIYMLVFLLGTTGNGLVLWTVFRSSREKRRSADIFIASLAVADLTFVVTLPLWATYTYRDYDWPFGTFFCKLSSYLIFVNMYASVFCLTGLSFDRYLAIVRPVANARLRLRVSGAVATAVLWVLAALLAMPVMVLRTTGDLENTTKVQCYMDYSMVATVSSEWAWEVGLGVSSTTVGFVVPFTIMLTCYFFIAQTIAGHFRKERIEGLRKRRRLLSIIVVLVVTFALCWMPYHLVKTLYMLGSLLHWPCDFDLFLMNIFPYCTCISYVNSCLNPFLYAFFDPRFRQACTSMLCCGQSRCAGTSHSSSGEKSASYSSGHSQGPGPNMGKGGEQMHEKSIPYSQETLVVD
Assay: Determination of agonism on the human apelin receptor by a calcium fluorescence assay (FLIPR)
Format: cell-based
Settings: HEK293 cells stably transfected with human apelin receptor and Giaq protein, Fluo-4 calcium fluorescence, read-out: EC50 (APJ agonism)
How it was run: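 Agonist EC50s come from peak intracellular calcium transients recorded by FLIPR Tetra, scaled to the 1 μM apelin-13 maximum per plate. Test system: HEK293 stably transfected with human apelin receptor plus Giaq, Fluo-4-loaded (4 μM, 1 h, 37 °C, pH 7.4 buffer with probenecid); ≥7 concentrations, triplicates.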

SMILES	EC50 [nM]
CCC(CC)n1c(Cc2cccs2)nc2cc(C(=O)N[C@@H](CC(C)C)C(=O)NCCOc3ccccc3)ccc21 [Example 366, 1-(1-Ethyl-propyl)-2-thiophen-2-ylmethyl-1H-benzoimidazole-5-carboxylic acid [(S)-3-methyl-1-(2-phenoxy-ethylcarbamoyl)-butyl]-amide]	16500
CCC(CC)n1c(Cc2cccs2)nc2cc(C(=O)N[C@@H](CC(C)C)C(=O)NC[C@H]3CCCO3)ccc21 [Example 367, 1-(1-Ethyl-propyl)-2-thiophen-2-ylmethyl-1H-benzoimidazole-5-carboxylic acid ((S)-3-methyl-1-{[(R)-1-(tetrahydro-furan-2-yl)methyl]-carbamoyl}-butyl)-amide]	1660
CCC(CC)n1c(Cc2cccs2)nc2cc(C(=O)N[C@@H](CC(C)C)C(=O)NC[C@@H]3CCCO3)ccc21 [Example 368, 1-(1-Ethyl-propyl)-2-thiophen-2-ylmethyl-1H-benzoimidazole-5-carboxylic acid ((S)-3-methyl-1-{[(S)-1-(tetrahydro-furan-2-yl)methyl]-carbamoyl}-butyl)-amide]	1880
CCC(CC)n1c(Cc2cccs2)nc2cc(C(=O)N[C@@H](CC(C)C)C(=O)NCC3CCOCC3)ccc21 [Example 369, 1-(1-Ethyl-propyl)-2-thiophen-2-ylmethyl-1H-benzoimidazole-5-carboxylic acid {(S)-3-methyl-1-[(tetrahydro-pyran-4-ylmethyl)-carbamoyl]-butyl}-amide]	2210
CCC(CC)n1c(Cc2cccs2)nc2cc(C(=O)N[C@@H](CC(C)C)C(=O)N[C@@H](C)COC)ccc21 [Example 370, 1-(1-Ethyl-propyl)-2-thiophen-2-ylmethyl-1H-benzoimidazole-5-carboxylic acid [(S)-1-((S)-2-methoxy-1-methyl-ethylcarbamoyl)-3-methyl-butyl]-amide]	2850
CCC(CC)n1c(Cc2cccs2)nc2cc(C(=O)N[C@@H](CC(C)C)C(=O)NCCOC(C)C)ccc21 [Example 371, 1-(1-Ethyl-propyl)-2-thiophen-2-ylmethyl-1H-benzoimidazole-5-carboxylic acid [(S)-1-(2-isopropoxy-ethylcarbamoyl)-3-methyl-butyl]-amide]	3570
CCC(CC)n1c(Cc2cccs2)nc2cc(C(=O)N[C@@H](CC(C)C)C(=O)N(C)Cc3ccc(OC)cc3)ccc21 [Example 372, 1-(1-Ethyl-propyl)-2-thiophen-2-ylmethyl-1H-benzoimidazole-5-carboxylic acid {(S)-1-[(4-methoxy-benzyl)-methyl-carbamoyl]-3-methyl-butyl}-amide]	13200
CCC(CC)n1c(Cc2cccs2)nc2cc(C(=O)N[C@@H](CC(C)C)C(=O)N3CCC(OC)CC3)ccc21 [Example 373, 1-(1-Ethyl-propyl)-2-thiophen-2-ylmethyl-1H-benzoimidazole-5-carboxylic acid [(S)-1-(4-methoxy-piperidine-1-carbonyl)-3-methyl-butyl]-amide]	1840
CCC(CC)n1c(Cc2cccs2)nc2cc(C(=O)N[C@@H](CC(C)C)C(=O)N3CCC(COC)CC3)ccc21 [Example 374, 1-(1-Ethyl-propyl)-2-thiophen-2-ylmethyl-1H-benzoimidazole-5-carboxylic acid [(S)-1-(4-methoxymethyl-piperidine-1-carbonyl)-3-methyl-butyl]-amide]	2180
CCC(CC)n1c(Cc2cccs2)nc2cc(C(=O)N[C@@H](CC(C)C)C(=O)N3CCC(OC(C)C)CC3)ccc21 [Example 375, 1-(1-Ethyl-propyl)-2-thiophen-2-ylmethyl-1H-benzoimidazole-5-carboxylic acid [(S)-1-(4-isopropoxy-piperidine-1-carbonyl)-3-methyl-butyl]-amide]	2880
CCC(CC)n1c(Cc2cccs2)nc2cc(C(=O)N[C@@H](CC(C)C)C(=O)N3CCCC(OC)C3)ccc21 (stereo partly drawn) [Example 376, 1-(1-Ethyl-propyl)-2-thiophen-2-ylmethyl-1H-benzoimidazole-5-carboxylic acid [(S)-1-(3-methoxy-piperidine-1-carbonyl)-3-methyl-butyl]-amide]	1830

Other lines, results leading:

EC50 [nM]	SMILES
1140	CCC(CC)n1c(Cc2cccs2)nc2cc(C(=O)N[C@@H](CC(C)C)C(=O)N(C)C3CCOCC3)ccc21 [Example 377, 1-(1-Ethyl-propyl)-2-thiophen-2-ylmethyl-1H-benzoimidazole-5-carboxylic acid {(S)-3-methyl-1-[methyl-(tetrahydro-pyran-4-yl)-carbamoyl]-butyl}-amide]
2440	CCC(CC)n1c(Cc2cccs2)nc2cc(C(=O)N[C@@H](CC(C)C)C(=O)N3CCCC(COC)C3)ccc21 (stereo partly drawn) [Example 378, 1-(1-Ethyl-propyl)-2-thiophen-2-ylmethyl-1H-benzoimidazole-5-carboxylic acid [(S)-1-(3-methoxymethyl-piperidine-1-carbonyl)-3-methyl-butyl]-amide]
1800	CCC(CC)n1c(Cc2cccs2)nc2cc(C(=O)N[C@@H](CC(C)C)C(=O)N3CCCC3)ccc21 [Example 379, 1-(1-Ethyl-propyl)-2-thiophen-2-ylmethyl-1H-benzoimidazole-5-carboxylic acid [(S)-3-methyl-1-(pyrrolidine-1-carbonyl)-butyl]-amide]
586	CCC(CC)n1c(Cc2cccs2)nc2cc(C(=O)N[C@@H](CC(C)C)C(=O)N(C)CCOC)ccc21 [Example 380, 1-(1-Ethyl-propyl)-2-thiophen-2-ylmethyl-1H-benzoimidazole-5-carboxylic acid {(S)-1-[(2-methoxy-ethyl)-methyl-carbamoyl]-3-methyl-butyl}-amide]
970	CCC(CC)n1c(Cc2cccs2)nc2cc(C(=O)N[C@@H](CC(C)C)C(=O)NC)ccc21 [Example 381, 1-(1-Ethyl-propyl)-2-thiophen-2-ylmethyl-1H-benzoimidazole-5-carboxylic acid ((S)-3-methyl-1-methylcarbamoyl-butyl)-amide]
3560	CCC(CC)n1c(Cc2cccs2)nc2cc(C(=O)N[C@@H](CC(C)C)C(=O)NCCC3CCOCC3)ccc21 [Example 382, 1-(1-Ethyl-propyl)-2-thiophen-2-ylmethyl-1H-benzoimidazole-5-carboxylic acid {(S)-3-methyl-1-[2-(tetrahydro-pyran-4-yl)-ethylcarbamoyl]-butyl}-amide]
2120	CCOCCNC(=O)[C@H](CC(C)C)NC(=O)c1ccc2c(c1)nc(Cc1cccs1)n2C(CC)CC [Example 383, 1-(1-Ethyl-propyl)-2-thiophen-2-ylmethyl-1H-benzoimidazole-5-carboxylic acid [(S)-1-(2-ethoxy-ethylcarbamoyl)-3-methyl-butyl]-amide]
1630	CCC(CC)n1c(Cc2cccs2)nc2cc(C(=O)N[C@@H](CC(C)C)C(=O)N3CCC[C@H]3COC)ccc21 [Example 384, 1-(1-Ethyl-propyl)-2-thiophen-2-ylmethyl-1H-benzoimidazole-5-carboxylic acid [(S)-1-((S)-2-methoxymethyl-pyrrolidine-1-carbonyl)-3-methyl-butyl]-amide]
2510	CCCOCCNC(=O)[C@H](CC(C)C)NC(=O)c1ccc2c(c1)nc(Cc1cccs1)n2C(CC)CC [Example 385, 1-(1-Ethyl-propyl)-2-thiophen-2-ylmethyl-1H-benzoimidazole-5-carboxylic acid [(S)-3-methyl-1-(2-propoxy-ethylcarbamoyl)-butyl]-amide]
2230	CCC(CC)n1c(Cc2cccs2)nc2cc(C(=O)N[C@@H](CC(C)C)C(=O)NCC3CCCCO3)ccc21 (stereo partly drawn) [Example 386, 1-(1-Ethyl-propyl)-2-thiophen-2-ylmethyl-1H-benzoimidazole-5-carboxylic acid {(S)-3-methyl-1-[(tetrahydro-pyran-2-ylmethyl)-carbamoyl]-butyl}-amide]
1140	CCC(CC)n1c(Cc2cccs2)nc2cc(C(=O)N[C@@H](CC(C)C)C(=O)N(C)CC3CCCO3)ccc21 (stereo partly drawn) [Example 387, 1-(1-Ethyl-propyl)-2-thiophen-2-ylmethyl-1H-benzoimidazole-5-carboxylic acid {(S)-3-methyl-1-[methyl-(tetrahydro-furan-2-ylmethyl)-carbamoyl]-butyl}-amide]
1590	CCC(CC)n1c(Cc2cccs2)nc2cc(C(=O)N[C@@H](CC(C)C)C(=O)NCCCOCC3CCCO3)ccc21 (stereo partly drawn) [Example 388, 1-(1-Ethyl-propyl)-2-thiophen-2-ylmethyl-1H-benzoimidazole-5-carboxylic acid {(S)-3-methyl-1-[3-(tetrahydro-furan-2-ylmethoxy)-propylcarbamoyl]-butyl}-amide]
17100	CCC(CC)n1c(Cc2cccs2)nc2cc(C(=O)N[C@@H](CC(C)C)C(=O)NCCCOCc3ccccc3)ccc21 [Example 389, 1-(1-Ethyl-propyl)-2-thiophen-2-ylmethyl-1H-benzoimidazole-5-carboxylic acid [(S)-1-(3-benzyloxy-propylcarbamoyl)-3-methyl-butyl]-amide]
10900	CCC(CC)n1c(Cc2cccs2)nc2cc(C(=O)N[C@@H](CC(C)C)C(=O)N3CC[C@H](OCc4ccccc4)C3)ccc21 [Example 390, 1-(1-Ethyl-propyl)-2-thiophen-2-ylmethyl-1H-benzoimidazole-5-carboxylic acid [(S)-1-((S)-3-benzyloxy-pyrrolidine-1-carbonyl)-3-methyl-butyl]-amide]
